Test results: US9938322B2, “β-hairpin peptidomimetics” (priority 2013, dated 2018)
*1 amine or outer side, *2 acyl side, *3 side chain or, on linkers, in order; H or OH if unused. Where a SMILES comes first, the peptide text is derived from it. Side-chain parts run from the residue outwards. [ ]: non-standard residue; d: D form. The star is where a group is joined. Oic = O=C(O)[C@@H]1C[C@@H]2CCCC[C@@H]2N1; Pro(3S-OH) = O=C(O)[C@H]1NCC[C@@H]1O; Dap(CONH2) = NC(=O)NC[C@H](N)C(=O)O; X1 = CC(C)NC[C@H](N[*:1])C(=O)[*:2]; Orn(iPr) = CC(C)NCCC[C@H](N)C(=O)O; Cha = N[C@@H](CC1CCCCC1)C(=O)O; Chg = N[C@H](C(=O)O)C1CCCCC1; Tle = CC(C)(C)[C@H](N)C(=O)O; dDab = NCC[C@@H](N)C(=O)O; hSer = N[C@@H](CCO)C(=O)O; Orn = NCCC[C@H](N)C(=O)O; dDap = NC[C@@H](N)C(=O)O; Dab = NCC[C@H](N)C(=O)O; Nva = CCC[C@H](N)C(=O)O; Dap = NC[C@H](N)C(=O)O; CO = O=C([*:1])[*:2]; NHiPr = CC(C)N*

System: human red blood cells (hRBC)
Test: Hemolysis of human red blood cells
Format: cell-based
Settings: red cells of human, 1 h, 100
Method in brief: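 Washed fresh human erythrocytes (20% v/v, about 0.9×10^9 cells/ml final) incubated with peptide at 100 μg/ml for 1 h at 37° C with shaking. Supernatant OD540 read; hemolysis expressed relative to 2.5% Triton X-100 (100%) and PBS with 0.001% acetic acid (0%).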

Structure (SMILES) | Hemolysis at 100 μg/ml [%]
CC(C)C[C@@H]1NC(=O)[C@@H]2CCCN2C(=O)[C@H]2CCCN2C(=O)[C@H](CO)NC(=O)[C@H](CCN)NC(=O)[C@H](C(C)(C)C)NC(=O)[C@H](CCN)NC(=O)[C@H](Cc2c[nH]c3ccccc23)NC(=O)[C@H](CCN)NC(=O)[C@@H](CCN)NC(=O)[C@H](CCCN)NC(=O)[C@H](CCN)NC(=O)[C@H](Cc2ccc(O)cc2)NC(=O)[C@H]([C@@H](C)O)NC1=O [compound 115] (cyclo(LTY[Dab][Orn][dDab][Dab]W[Dab][Tle][Dab]S[dP]P)) | 0
CC(C)C[C@@H]1NC(=O)[C@@H]2CCCN2C(=O)[C@H]2CCCN2C(=O)[C@H](CO)NC(=O)[C@H](C)NC(=O)[C@H](C(C)C)NC(=O)[C@H](CCN)NC(=O)[C@H](Cc2c[nH]c3ccccc23)NC(=O)[C@H](CCN)NC(=O)[C@@H](CCN)NC(=O)[C@H](CCCN)NC(=O)[C@H](CCN)NC(=O)[C@H](CC2CCCCC2)NC(=O)[C@H](CO)NC1=O [compound 140] (cyclo(LS[Cha][Dab][Orn][dDab][Dab]W[Dab]VAS[dP]P)) | 2
CC(C)C[C@@H]1NC(=O)[C@@H]2[C@@H](O)CCN2C(=O)[C@H]2CCCN2C(=O)[C@H](CO)NC(=O)[C@H](CNC(N)=O)NC(=O)[C@H](C(C)(C)C)NC(=O)[C@H](CCN)NC(=O)[C@H](Cc2c[nH]c3ccccc23)NC(=O)[C@H](CCN)NC(=O)[C@@H](CCN)NC(=O)[C@H](CCCN)NC(=O)[C@H](CCN)NC(=O)[C@H](CC2CCCCC2)NC(=O)[C@H](CO)NC1=O [compound 59] (cyclo([Cha][Dab][Orn][dDab][Dab]W[Dab][Tle][Dap(CONH2)]S[dP][Pro(3S-OH)]LS)) | 1
CC(C)[C@@H]1NC(=O)[C@@H]2CCCN2C(=O)[C@H]2CCCN2C(=O)[C@H](CO)NC(=O)[C@H](C)NC(=O)[C@H](C2CCCCC2)NC(=O)[C@H](CCN)NC(=O)[C@H](Cc2c[nH]c3ccccc23)NC(=O)[C@H](CCN)NC(=O)[C@@H](CCN)NC(=O)[C@H](CCCN)NC(=O)[C@H](CCN)NC(=O)[C@H](Cc2ccc(O)cc2)NC(=O)[C@H](CO)NC1=O [compound 90] (cyclo(VSY[Dab][Orn][dDab][Dab]W[Dab][Chg]AS[dP]P)) | 2
CC(C)NCCC[C@@H]1NC(=O)[C@H](CCN)NC(=O)[C@H](CC2CCCCC2)NC(=O)[C@H](CNC(C)C)NC(=O)[C@H](Cc2c[nH]c3ccccc23)NC(=O)[C@@H]2CCCN2C(=O)[C@H]2CCCN2C(=O)[C@H](CO)NC(=O)[C@H](CO)NC(=O)[C@H](C(C)(C)C)NC(=O)[C@H](CCN)NC(=O)[C@H](Cc2c[nH]c3ccccc23)NC(=O)[C@H](CCN)NC(=O)[C@@H](CCN)NC1=O [compound 8] (cyclo(W[X1][Cha][Dab][Orn(iPr)][dDab][Dab]W[Dab][Tle]SS[dP]P)) | 7
C[C@@H]1NC(=O)[C@H](Cc2c[nH]c3ccccc23)NC(=O)[C@@H]2CCCN2C(=O)[C@H]2CCCN2C(=O)[C@H](CO)NC(=O)[C@H](C)NC(=O)[C@H](C(C)(C)C)NC(=O)[C@H](CCN)NC(=O)[C@H](Cc2c[nH]c3ccccc23)NC(=O)[C@H](CCN)NC(=O)[C@@H](CCN)NC(=O)[C@H](CCCN)NC(=O)[C@H](CCN)NC(=O)[C@H](Cc2ccc(O)cc2)NC1=O [compound 4] (cyclo(WAY[Dab][Orn][dDab][Dab]W[Dab][Tle]AS[dP]P)) | 1
COC[C@@H]1NC(=O)[C@H](C(C)(C)C)NC(=O)[C@H](CCN)NC(=O)[C@H](Cc2c[nH]c3ccccc23)NC(=O)[C@H](CCN)NC(=O)[C@@H](CCN)NC(=O)[C@H](CCCN)NC(=O)[C@H](CCN)NC(=O)[C@H](CC2CCCCC2)NC(=O)[C@H](C)NC(=O)[C@H](Cc2c[nH]c3ccccc23)NC(=O)[C@@H]2C[C@@H]3CCCC[C@@H]3N2C(=O)[C@H]2CCCN2C(=O)[C@H](CO)NC1=O [Ex. 54, cyclo(-Trp-Ala-Cha-Dab-Orn-^DDab-Dab-Trp-Dab-tBuGly-Ser(Me)-Ser-^DPro-Oic-)] (cyclo(A[Cha][Dab][Orn][dDab][Dab]W[Dab][Tle]S(Me)S[dP][Oic]W)) | 3
CC(C)C[C@@H]1NC(=O)[C@@H]2CCCN2C(=O)[C@H]2CCCN2C(=O)[C@H](CO)NC(=O)[C@H](C)NC(=O)[C@H](C(C)(C)C)NC(=O)[C@H](CCCNC(=N)N)NC(=O)[C@H](Cc2c[nH]c3ccccc23)NC(=O)[C@H](CCN)NC(=O)[C@@H](CCN)NC(=O)[C@H](CCCN)NC(=O)[C@H](CCN)NC(=O)[C@H](Cc2ccc(O)cc2)NC(=O)[C@H](CO)NC1=O [compound 97] (cyclo(LSY[Dab][Orn][dDab][Dab]WR[Tle]AS[dP]P)) | 1
C[C@@H]1NC(=O)[C@H](C(C)(C)C)NC(=O)[C@H](CCN)NC(=O)[C@H](Cc2c[nH]c3ccccc23)NC(=O)[C@H](CCN)NC(=O)[C@@H](CN)NC(=O)[C@H](CCCN)NC(=O)[C@H](CCN)NC(=O)[C@H](CC2CCCCC2)NC(=O)[C@H](CO)NC(=O)[C@H](Cc2c[nH]c3ccccc23)NC(=O)[C@@H]2CCCN2C(=O)[C@H]2CCCN2C(=O)[C@H](CO)NC1=O [compound 19] (cyclo(WS[Cha][Dab][Orn][dDap][Dab]W[Dab][Tle]AS[dP]P)) | 3
CC(C)C[C@@H]1NC(=O)[C@@H]2CCCN2C(=O)[C@H]2CCCN2C(=O)[C@H](CO)NC(=O)[C@H](CC(N)=O)NC(=O)[C@H](C(C)(C)C)NC(=O)[C@H](CCN)NC(=O)[C@H](Cc2c[nH]c3ccccc23)NC(=O)[C@H](CCN)NC(=O)[C@@H](CCN)NC(=O)[C@H](CCCN)NC(=O)[C@H](CCN)NC(=O)[C@H](Cc2ccc(O)cc2)NC(=O)[C@H]([C@@H](C)O)NC1=O [compound 119] (cyclo(LTY[Dab][Orn][dDab][Dab]W[Dab][Tle]NS[dP]P)) | 1
CC(C)NC(=O)NC[C@@H]1NC(=O)[C@H](Cc2c[nH]c3ccccc23)NC(=O)[C@@H]2CCCN2C(=O)[C@H]2CCCN2C(=O)[C@H](CO)NC(=O)[C@H](C)NC(=O)[C@H](C(C)(C)C)NC(=O)[C@H](CCN)NC(=O)[C@H](Cc2c[nH]c3ccccc23)NC(=O)[C@H](CCN)NC(=O)[C@@H](CCN)NC(=O)[C@H](CCCN)NC(=O)[C@H](CCN)NC(=O)[C@H](CC2CCCCC2)NC1=O [compound 17] (cyclo(W[Dap]([CO-NHiPr])[Cha][Dab][Orn][dDab][Dab]W[Dab][Tle]AS[dP]P)) | 6
CCC[C@@H]1NC(=O)[C@H](CCN)NC(=O)[C@H](Cc2c[nH]c3ccccc23)NC(=O)[C@H](CCN)NC(=O)[C@@H](CCN)NC(=O)[C@H](CCCN)NC(=O)[C@H](CCN)NC(=O)[C@H](C(C)(C)C)NC(=O)[C@H](CO)NC(=O)[C@H](Cc2c[nH]c3ccccc23)NC(=O)[C@@H]2CCCN2C(=O)[C@H]2CCCN2C(=O)[C@H](CO)NC(=O)[C@H](C)NC1=O [compound 67] (cyclo(WS[Tle][Dab][Orn][dDab][Dab]W[Dab][Nva]AS[dP]P)) | 1
CC(C)C[C@@H]1NC(=O)[C@@H]2CCCN2C(=O)[C@H]2CCCN2C(=O)[C@H](CO)NC(=O)[C@H](Cc2ccc(O)cc2)NC(=O)[C@H](C(C)(C)C)NC(=O)[C@H](CCN)NC(=O)[C@H](Cc2c[nH]c3ccccc23)NC(=O)[C@H](CCN)NC(=O)[C@@H](CCN)NC(=O)[C@H](CCCN)NC(=O)[C@H](CCN)NC(=O)[C@H](Cc2ccc(O)cc2)NC(=O)[C@H]([C@@H](C)O)NC1=O [compound 113] (cyclo(LTY[Dab][Orn][dDab][Dab]W[Dab][Tle]YS[dP]P)) | 0
CC(C)C[C@@H]1NC(=O)[C@@H]2CCCN2C(=O)[C@H]2CCCN2C(=O)[C@H](CO)NC(=O)[C@H](C)NC(=O)[C@H](C(C)(C)C)NC(=O)[C@H](CCN)NC(=O)[C@H](Cc2c[nH]c3ccccc23)NC(=O)[C@H](CCN)NC(=O)[C@@H](CCN)NC(=O)[C@H](CCCN)NC(=O)[C@H](CCN)NC(=O)[C@H](Cc2c[nH]c3ccccc23)NC(=O)[C@H](CO)NC1=O [compound 33] (cyclo(LSW[Dab][Orn][dDab][Dab]W[Dab][Tle]AS[dP]P)) | 3.5
CC(C)C[C@@H]1NC(=O)[C@@H]2CCCN2C(=O)[C@H]2CCCN2C(=O)[C@H](CN)NC(=O)[C@H](C)NC(=O)[C@H](C(C)(C)C)NC(=O)[C@H](CCO)NC(=O)[C@H](Cc2c[nH]c3ccccc23)NC(=O)[C@H](CCN)NC(=O)[C@@H](CCN)NC(=O)[C@H](CCCN)NC(=O)[C@H](CCN)NC(=O)[C@H](Cc2ccc(O)cc2)NC(=O)[C@H](CO)NC1=O [compound 42] (cyclo(LSY[Dab][Orn][dDab][Dab]W[hSer][Tle]A[Dap][dP]P)) | 1
CCC[C@@H]1NC(=O)[C@@H]2CCCN2C(=O)[C@H]2CCCN2C(=O)[C@H](CO)NC(=O)[C@H](C)NC(=O)[C@H](CC2CCCCC2)NC(=O)[C@H](CCN)NC(=O)[C@H](Cc2c[nH]c3ccccc23)NC(=O)[C@H](CCN)NC(=O)[C@@H](CCN)NC(=O)[C@H](CCCCN)NC(=O)[C@H](CCN)NC(=O)[C@H](C(C)(C)C)NC(=O)[C@H](CO)NC1=O [compound 139] (cyclo([Nva]S[Tle][Dab]K[dDab][Dab]W[Dab][Cha]AS[dP]P)) | 5
CCC[C@@H]1NC(=O)[C@@H]2CCCN2C(=O)[C@H]2CCCN2C(=O)[C@H](CO)NC(=O)[C@H](CO)NC(=O)[C@H](C(C)(C)C)NC(=O)[C@H](CCN)NC(=O)[C@H](Cc2c[nH]c3ccccc23)NC(=O)[C@H](CCN)NC(=O)[C@@H](CCN)NC(=O)[C@H](CCCN)NC(=O)[C@H](CCN)NC(=O)[C@H](Cc2ccc(O)cc2)NC(=O)[C@H](CO)NC1=O [compound 118] (cyclo([Nva]SY[Dab][Orn][dDab][Dab]W[Dab][Tle]SS[dP]P)) | 1
CC(C)C[C@@H]1NC(=O)[C@@H]2CCCN2C(=O)[C@H]2CCCN2C(=O)[C@H](CO)NC(=O)[C@H](CC(N)=O)NC(=O)[C@H](C(C)(C)C)NC(=O)[C@H](CCN)NC(=O)[C@H](Cc2c[nH]c3ccccc23)NC(=O)[C@H](CCN)NC(=O)[C@@H](CCN)NC(=O)[C@H](CCCN)NC(=O)[C@H](CCN)NC(=O)[C@H](Cc2ccc(O)cc2)NC(=O)[C@H](CC(=O)O)NC1=O [compound 123] (cyclo(LDY[Dab][Orn][dDab][Dab]W[Dab][Tle]NS[dP]P)) | 0
